Assay results as given in patent US20170258871A1, “COMBINED USE OF A TRKA INHIBITOR AND AN EPHA2 INHIBITOR FOR USING IN THE TREATMENT OF SOLID CANCERS, AND METHOD FOR THE PROGNOSIS OF SURVIVAL OF A PATIENT WHO HAS A SOLID CANCER” (UNIVERSITE DES SCIENCES ET TECHNOLOGIES DE LILLE, priority 2014, published 2017).

Experiments:
Akt = assay: Western blot of Akt phosphorylation in MDA-MB-231 cells; format: cell-based
Experimental: FIG. 8: A study of the role of TrkA and EphA2 in the activation of proteins Akt and Src. Cells MDA-MB-231 were respectively treated with a TrkA inhibitor (K252a), an anti-EphA2 siRNA (siEphA2), an inhibitor of PI3-K (LY294002) and an inhibitor of Src (SKI-1).
A and D. Cells MDA-MB-231 HA-TrkA were treated with proNGF N.C. […] The phosphorylation of Akt and Src was determined by using phospho-specific antibodies. The equal charge was verified using Akt and Src antibodies.
C and F. The phosphorylation of Akt and Src was determined in the total lysates coming from cells MDA-MB-231 transfected with siEphA2 and treated for 30 minutes with proNGF N.C. (C) or NGF (F).
After treatment, the cells were lysed (lysis buffer: 40 mM HEPES pH 7.5; 1 mM EDTA pH 8.0; 120 mM NaCl; 10 mM NaPPi; 50 mM NaF; 1.5 mM Na3VO4; 1% Triton X 100; 0.1% SDS; 1 mM PMSF; 10% glycerol and 1/100 th of protease inhibitor cocktail (Sigma) (20 min; 4° C.)). The lysates were recovered and clarified by centrifugation (12,000 g; 10 min; 4° C.). The supernatant was then stored at −80° C. until use. The protein extracts were diluted to 2 μg·μL−1 in a Laemmli 1× buffer (7 min; 100° C.) then deposited and separated on SDS-PAGE (concentration gel 3.6% acrylamide and separation gel 7.5% to 10% acrylamide (thickness 1 mm); 180 V; 10 min then 200 V constant; until output of the migration front). The proteins separated by SDS-PAGE were transferred according to the semi-dry transfer method (buffer: 48 mM Tris base, 39 mM glycine, 1.64 mM SDS, 20% methanol (v/v); 14 V; 15 min per gel) or liquid (buffer: 25 mM Tris base and 192 mM glycine; 15% methanol (v/v); 100 V; 30 min) on nitrocellulose membranes (0.45 μm; Whatman; Germany) or PVDF (0.45 μm; Immobilon P; Millipore; France). The PVDF membrane was “activated” beforehand (methanol; 10 min; 20° C.). The membranes were then saturated (TBS-T; 5% BSA; 1 h; 20° C.) then incubated (16 h; 4° C.) with the chosen primary antibody. […] The membranes were placed in an image analyser (LAS 4000; Fuji) connected to a computer which allowed image generation (software Image Reader LAS 4000).
The antibody against EphA2 was sc-924 (Santa Cruz), the antibody against sortilin was BD Bioscience 612101, the antibody against TrkA was sc 14024 (Santa Cruz), the antibody against HA was MMS-101R (Covance), the antibody against Akt was Cell Signaling 4691, the antibody against phospho-Akt (Ser 473) was Cell Signaling 9271, the antibody against Src was Cell Signaling 2109 (WB), the antibody against PhosphoSrc (Tyr416) was Cell Signaling 2105 and the antibody against actin was Sigma A2066.
Proteins Akt and Src were both involved in the pro-invasive effect of proNGF. In order to identify the role of TrkA and EphA2 in the activation of proteins Akt and Src, cells MDA-MB-231 were treated respectively with a TrkA inhibitor (K252a), an anti-EphA2 siRNA (siEphA2) the sequence of which is presented in table 1, a PI3-K inhibitor (LY294002) (the activation of Akt in effect underlies that of PI3-K) and an inhibitor of Src (SKI-1).

FaDu cells = assay: In vitro invasion test (Boyden chamber), FaDu; format: cell-based; details: NGF 16 nM or proNGF N.C. 0.5 nM, untreated cells = 100%
Experimental: (0.5 nM) for a period of 20 hours. The untreated cells represent the control and determine a base invasion of 100%.
The Boyden Chambers (Transwell®; BD Biosciences; France) were recovered from a biological matrix (type 1 collagen from rats diluted to 400 μg·mL-1 in EMEM-0.1% FCS medium; Millipore). The cells were then seeded with 100,000 cells/well on PET membranes (polyethylene terephtalate; dia.: 10.5 mm; porosity: 8 μm) of Boyden Chambers and held in an EMEM-0.1% FCS medium. […] (0.5 nM) in the lower part. After 20 hours of culture, they were washed twice with PBS 1× and fixed (ice cold methanol; 15 min; −20° C.). The non-invasive cells (upper face of the Transwell®) were eliminated by scraping. The number of cells was estimated after staining with Hoechst 33 258 (1 mM; 30 min; 20° C.) by counting the nuclei thereof using fluorescence microscopy on a total of 5 five randomly chosen fields (lens 10×; λ-excitation: 345 nm; λ-emission: 478 nm; Eclipse Ti) using the ImageJ software. Each experiment was performed in triplicate. Statistical analysis of the results was performed by analysis of variance ANOVA (Bonferroni post-hoc test).

Substance | activation (phosphorylation) of Akt by the ligand (Akt; MDA-MB-231 HA-TrkA, 30 min) | cell invasion under growth factor (FaDu cells) | effect on Akt phosphorylation induced by NGF (Akt; NGF 30 min, 10 nM K252a or siEphA2)
NGF: Nerve Growth Factor; recombinant human β NGF supplied by Scil Proteins | increased | did not respond | –
siEphA2: siRNA against EphA2, GCAAGGAAGUGGUACUGCUGGACUU (SEQ ID NO: 1) (listed as RNA, chemistry not given here) | – | – | reduces only the base activation of phospho-Akt and phospho-Src but not the phosphorylation induced by the NGF
